Among the data in US20230107941A1, “HEPATITIS B CAPSID ASSEMBLY MODULATORS” (Venatorx Pharmaceuticals, Inc., priority 2019, published 2023) are CC50 and EC50 values, retold here.

Data set [1] is described as follows: In vitro cytotoxicity assay (MTT cell viability) in HepG2 cells. Format: cell-based, human. To be noted: human. Here is the method:
To evaluate antiviral selectivity, the cytotoxic activity of each compound was determined using a standard cell viability assay performed on the parental HepG2 cell line. Cell viability was determined by measuring the conversion of 3-(4,5-dimethylthiazol-2-yl)-2,5-diphenyltetrazolium bromide (MTT) to the insoluble formazan salt crystal that occurs in live cells. Briefly, HepG2 cells were seeded in 96-well plates at a density of 20,000 cells per well in […] (complete growth medium) and allowed to adhere overnight in a 37° C., […] humidified incubator. The next day, test agents were prepared by performing 8 half-log10 serial dilutions in 100% DMSO at 200× the final desired concentration in the assay. Compounds were tested over a range of concentrations from 30 μM to 1.0 nM in the assay. HepG2 cells were incubated in the presence of various concentrations of CAMs for 7 days in a 37° C., […] humidified incubator. At the completion of the 7-day incubation period, MTT reagent was added to each well and the mixture was incubated for an additional 3-4 hours. At the completion of the incubation period, all wells were aspirated to remove the culture medium. The formazan crystals were solubilized from the cell monolayers with 100% DMSO. Plates were briefly mixed on an orbital shaker and absorbance was measured at 492 nm using a Perkin-Elmer EnVision multi-label plate reader. All absorbance values were converted to a percentage of the signal obtained from the vehicle treated controls. Absorbance values at 492 nm are directly proportional to the number of viable cells present in the sample. A CC50 value (cytotoxic concentration that results in loss of 50% cell viability) was calculated from the dose-response curve by 4-parameter, non-linear regression analysis using the GraphPad Prism software. The positive control compound, staurosporine, reduced the viability of HepG2 cells in a dose-dependent manner (CC50=100 nM).

For the next data set, the system named is HBV. The experiment in a line: In vitro antiviral assay: anti-HBV replication in HepAD38 cells (extracellular HBV DNA by QPCR). To be noted: Hepatitis B virus, HePAD38, 168 h, 7 days incubation, extracellular HBV DNA by QPCR, read-out: Anti-HBV EC50. The format is cell-based, hepatitis B virus (genotype D, serotype ayw). The procedure: The anti-HBV activity of the Capsid Assembly Modulators (CAMs) was evaluated in a cell based assay utilizing the human hepatoma cell line HepAD38 (Ladner, S K., et al., 1998). HepAD38 cells were derived from the parental line, HepG2, that were stably transfected with a construct containing an HBV genome (genotype D, serotype ayw) under the control of a tetracycline repressible CMV promoter. Upon removal of tetracycline, viral pre-genomic RNA (pgRNA) and mRNAs are expressed and infectious viral particles are assembled and secreted into the culture medium providing a reliable, robust system to measure multiple steps of the HBV life cycle. Disruption of capsid formation results in reduced levels of DNA-containing virus particles that are released into the culture supernatant. To quantify the effect of CAMs on HBV replication, we developed a sensitive QPCR-based assay that measures extracellular HBV DNA levels upon treatment of HepAD38 cells with various concentrations of test compounds.
HepAD38 cells were maintained in DMEM/F12 medium containing 10% FBS, 400 μg/mL G418 and 0.3 μg/mL tetracycline (tet+ media) to maintain repression of HBV replication. To evaluate each compound, HepAD38 cells were seeded into 24-well collagen coated culture plates (Corning BioCoat) at a density of 200,000 cells per well in 1 mL of medium without tetracycline (tet-media) and allowed to adhere overnight at 37° C., 5% CO2 in a humidified incubator. The following day, media was refreshed and a dose range of each compound was prepared by performing 1 log10 serial dilutions in 100% DMSO at 200× the desired assay concentration. Dilutions were then added to the cells resulting in a final dose range of 1 μM to 10 pM and the plates were returned to the incubator. Following 7 days of incubation, culture supernatants were harvested and HBV DNA levels were evaluated by QPCR and compared to the vehicle treated control wells (i.e. DMSO alone).
To quantify HBV DNA levels, cell culture supernatants were diluted 1:10 in sterile, nuclease-free water (Gibco). The diluted supernatants were subsequently added to a PCR master mix containing 1× Roche Light Cycler Master Mix, 0.5 μM forward primer, 0.5 μM reverse primer (Fwd: 5′-[…] (SEQ ID NO 1); Rev: 5′-[…] (SEQ ID NO 2)), 0.2 μM Roche Universal Probe Library Probe 25. The volume was brought to 20 μL with nuclease-free water and amplification of the HBV target sequence was performed using a Roche LightCycler 480 QPCR instrument. PCR extended out to 45 cycles with each cycle consisting of a denaturation step at 95° C. for 10 sec., followed by an annealing step at 60° C. for 10 sec. and a brief extension step at 72° C. for 1 sec.
Extracellular HBV DNA levels, expressed in copies/mL, were determined by comparison to a standard curve (10^2-10^9 copies/mL) using the Roche LightCycler analysis software. These values were subsequently converted to percent inhibition of HBV replication by dividing the HBV DNA levels in the experimental samples with those obtained from the vehicle control (˜1-2×10^5 copies/mL). Potency, expressed as an EC50 (the effective concentration required to inhibit 50% of HBV replication), was calculated from the dose-response curve using a 4-parameter non-linear regression analysis (GraphPad Prism). The nucleoside analog inhibitor entecavir was used as a positive control to validate each assay run. The EC50 value of entecavir in the HepAD38 assay was 0.5 nM, as previously reported in the literature.

Structures are written as SMILES.

Usually CC50 stands for the concentration giving 50% cytotoxicity. Low values mean harm at low concentration, high ones better tolerance by the cells. As a reminder, the EC50 is the concentration that produces a half-maximal response. Take `Cc1noc(C2(NC(=O)c3c(C)c(C(=O)C(=O)Nc4cccnc4)n(C)c3C)CC2)n1` [Example 30, 1,2,4-trimethyl-N-(1-(3-methyl-1,2,4-oxadiazol-5-yl)cyclopropyl)-5-(2-oxo-2-(pyridin-3-ylamino)acetyl)-1H-pyrrole-3-carboxamide]: in data set [1], the CC50 at 7 days was over 30000 nM. Besides, the EC50 with HBV was over 1000 nM.

Consider `Cc1cc(NC(=O)c2c(C)c(C(=O)C(=O)NC3CC(S(C)(=O)=O)C3)n(C)c2C)ccc1F` (centres unmarked) [Example 31, N-(4-fluoro-3-methylphenyl)-1,2,4-trimethyl-5-(2-(((1s,3s)-3-(methylsulfonyl)cyclobutyl)amino)-2-oxoacetyl)-1H-pyrrole-3-carboxamide], for which, in data set [1], the CC50 at 7 days was over 30000 nM. The EC50 with HBV is under 50 nM.

Turning to `Cc1c(C(=O)Nc2ccc(F)c(F)c2)c2n(c1C(=O)C(=O)NC1(C)CCN(C(=O)Nc3ccc(F)c(F)c3)CC1)CCCC2` [Example 33, N-(3,4-difluorophenyl)-3-(2-((1-((3,4-difluorophenyl)carbamoyl)-4-methylpiperidin-4-yl)amino)-2-oxoacetyl)-2-methyl-5,6,7,8-tetrahydroindolizine-1-carboxamide], the CC50 at 7 days in data set [1] is 500 to 4990 nM. The EC50 with HBV is under 50 nM.

In data set [1], `Cc1cc(NC(=O)c2c(C)c(C(=O)C(=O)N[C@@H]3CCCN(C(=O)Nc4ccc(F)c(F)c4)C3)n(C)c2C)ccc1F` [Example 35, (R)-N-(3,4-difluorophenyl)-3-(2-(4-((4-fluoro-3-methylphenyl)carbamoyl)-1,3,5-trimethyl-1H-pyrrol-2-yl)-2-oxoacetamido)piperidine-1-carboxamide] registered a CC50 at 7 days of 5000 to 30000 nM. Moreover, the EC50 in the data set on HBV fell in the range of 500 to 1000 nM.

`Cc1cc(NC(=O)c2c(C)c(C(=O)C(=O)NC3(C)CCN(C(=O)N4CCOCC4)CC3)n(C)c2C)ccc1F` [Example 36, N-(4-fluoro-3-methylphenyl)-1,2,4-trimethyl-5-(2-((4-methyl-1-(morpholine-4-carbonyl)piperidin-4-yl)amino)-2-oxoacetyl)-1H-pyrrole-3-carboxamide] yielded a CC50 at 7 days in data set [1] of over 30000 nM. For the same compound, the concentration giving a half-maximal response (EC50) in the data set on HBV is under 50 nM.

In the case of `Cc1c(C(=O)Nc2ccc(F)c(F)c2)c2n(c1C(=O)C(=O)N[C@@H]1COC[C@H]1N1CCOCC1)CCCC2` [Example 37, N-(3,4-difluorophenyl)-2-methyl-3-(2-(((3S,4S)-4-morpholinotetrahydrofuran-3-yl)amino)-2-oxoacetyl)-5,6,7,8-tetrahydroindolizine-1-carboxamide], the CC50 at 7 days in data set [1] was over 30000 nM. In addition, in the data set with HBV, the EC50 fell in the range of 50 to 499 nM.

Consider `CCC1(NC(=O)C(=O)c2c(C)c(C(=O)Nc3ccc(F)c(C)c3)c(C)n2C)CCN(C(=O)c2cnn(C)c2)CC1` [Example 38, 5-(2-((4-ethyl-1-(1-methyl-1H-pyrazole-4-carbonyl)piperidin-4-yl)amino)-2-oxoacetyl)-N-(4-fluoro-3-methylphenyl)-1,2,4-trimethyl-1H-pyrrole-3-carboxamide], for which the half-maximal cytotoxic concentration (CC50) at 7 days in data set [1] is over 30000 nM. Moreover, the half-maximal effective concentration (EC50) in the data set on HBV was under 50 nM.

`CCC1(NC(=O)C(=O)c2c(C)c(C(=O)Nc3ccc(F)c(C)c3)c(C)n2C)CCN(C(=O)c2ccnn2C)CC1` [Example 39, 5-(2-((4-ethyl-1-(1-methyl-1H-pyrazole-5-carbonyl)piperidin-4-yl)amino)-2-oxoacetyl)-N-(4-fluoro-3-methylphenyl)-1,2,4-trimethyl-1H-pyrrole-3-carboxamide] had a CC50 at 7 days in data set [1] of over 30000 nM. Also, in the data set on HBV, the 50% effective concentration (EC50) is under 50 nM.

`CCC1(NC(=O)C(=O)c2c(C)c(C(=O)Nc3ccc(F)c(C)c3)c(C)n2C)CCN(C(=O)c2cn(C)nc2C(F)F)CC1` [Example 40, 5-(2-((1-(3-(difluoromethyl)-1-methyl-1H-pyrazole-4-carbonyl)-4-ethylpiperidin-4-yl)amino)-2-oxoacetyl)-N-(4-fluoro-3-methylphenyl)-1,2,4-trimethyl-1H-pyrrole-3-carboxamide] gave a CC50 at 7 days in data set [1] of over 30000 nM. Further, the EC50 in the data set with HBV was under 50 nM.

`CCC1(NC(=O)C(=O)c2c(C)c(C(=O)Nc3ccc(F)c(C)c3)c(C)n2C)CCN(C(C)=O)CC1` [Example 41, 5-(2-((1-acetyl-4-ethylpiperidin-4-yl)amino)-2-oxoacetyl)-N-(4-fluoro-3-methylphenyl)-1,2,4-trimethyl-1H-pyrrole-3-carboxamide] registered a CC50 at 7 days in data set [1] of over 30000 nM. Further, the EC50 in the data set on HBV was under 50 nM.

In turn, `CCC1(NC(=O)C(=O)c2c(C)c(C(=O)Nc3ccc(F)c(C)c3)c(C)n2C)CCN(S(C)(=O)=O)CC1` [Example 42, 5-(2-((4-ethyl-1-(methylsulfonyl)piperidin-4-yl)amino)-2-oxoacetyl)-N-(4-fluoro-3-methylphenyl)-1,2,4-trimethyl-1H-pyrrole-3-carboxamide] registered a CC50 at 7 days in data set [1] of over 30000 nM. The EC50 in the data set with HBV was under 50 nM.

In turn, `CCC1(NC(=O)C(=O)c2c(C)c(C(=O)Nc3ccc(F)c(C)c3)c(C)n2C)CCN(c2nccs2)CC1` [Example 43, 5-(2-((4-ethyl-1-(thiazol-2-yl)piperidin-4-yl)amino)-2-oxoacetyl)-N-(4-fluoro-3-methylphenyl)-1,2,4-trimethyl-1H-pyrrole-3-carboxamide] yielded a CC50 at 7 days in data set [1] of 5000 to 30000 nM. Also, the EC50 in the data set with HBV is under 50 nM.

Regarding `CCC1(NC(=O)C(=O)c2c(C)c(C(=O)Nc3ccc(F)c(C)c3)c(C)n2C)CCN(c2cccnn2)CC1` [Example 44, 5-(2-((4-ethyl-1-(pyridazin-3-yl)piperidin-4-yl)amino)-2-oxoacetyl)-N-(4-fluoro-3-methylphenyl)-1,2,4-trimethyl-1H-pyrrole-3-carboxamide], the CC50 at 7 days in data set [1] was over 30000 nM. Besides, the EC50 in the data set on HBV was under 50 nM.

On to `Cc1c(C(=O)Nc2ccc(B(O)O)cc2)c(C)n(C)c1C(=O)C(=O)NC(C)(C)C` [Example 45, (4-(5-(2-(tert-butylamino)-2-oxoacetyl)-1,2,4-trimethyl-1H-pyrrole-3-carboxamido)phenyl)boronic acid], for which the CC50 at 7 days in data set [1] was over 30000 nM. Besides, the 50% effective concentration (EC50) in the data set on HBV fell in the range of 500 to 1000 nM.

In the case of `Cc1c(C(=O)Nc2cccc(B(O)O)c2)c(C)n(C)c1C(=O)C(=O)NC(C)(C)C` [Example 46, (3-(5-(2-(tert-butylamino)-2-oxoacetyl)-1,2,4-trimethyl-1H-pyrrole-3-carboxamido)phenyl)boronic acid], the CC50 at 7 days in data set [1] was over 30000 nM. The EC50 with HBV lay within 500 to 1000 nM.

Compound `Cc1csc(C2(NC(=O)c3c(C)c(C(=O)C(=O)NC(C)(C)C)n(C)c3C)CCCC2)n1` [Example 47, 5-(2-(tert-butylamino)-2-oxoacetyl)-1,2,4-trimethyl-N-(1-(4-methylthiazol-2-yl)cyclopentyl)-1H-pyrrole-3-carboxamide] displayed a CC50 at 7 days in data set [1] of over 30000 nM. For the same compound, the EC50 with HBV is over 1000 nM.
